Patent US20220251036A1, “DIFLUOROHALOALLYLAMINE SULFONE DERIVATIVE INHIBITORS OF LYSYL OXIDASES, METHODS OF PREPARATION, AND USES THEREOF” (PHARMAXIS LTD., priority 2019, published 2022)

How the values were obtained:
[1] = target: T1, recombinant human DAO (Homo sapiens, UniProt P19801); assay: DAO inhibition; assay type: biochemical; details: 2 hours incubation
T1 construct: Gift: Prof; Boehm, Department of Clinical Pharmacology, Medical University, Vienna
T1 sequence (P19801 20-751): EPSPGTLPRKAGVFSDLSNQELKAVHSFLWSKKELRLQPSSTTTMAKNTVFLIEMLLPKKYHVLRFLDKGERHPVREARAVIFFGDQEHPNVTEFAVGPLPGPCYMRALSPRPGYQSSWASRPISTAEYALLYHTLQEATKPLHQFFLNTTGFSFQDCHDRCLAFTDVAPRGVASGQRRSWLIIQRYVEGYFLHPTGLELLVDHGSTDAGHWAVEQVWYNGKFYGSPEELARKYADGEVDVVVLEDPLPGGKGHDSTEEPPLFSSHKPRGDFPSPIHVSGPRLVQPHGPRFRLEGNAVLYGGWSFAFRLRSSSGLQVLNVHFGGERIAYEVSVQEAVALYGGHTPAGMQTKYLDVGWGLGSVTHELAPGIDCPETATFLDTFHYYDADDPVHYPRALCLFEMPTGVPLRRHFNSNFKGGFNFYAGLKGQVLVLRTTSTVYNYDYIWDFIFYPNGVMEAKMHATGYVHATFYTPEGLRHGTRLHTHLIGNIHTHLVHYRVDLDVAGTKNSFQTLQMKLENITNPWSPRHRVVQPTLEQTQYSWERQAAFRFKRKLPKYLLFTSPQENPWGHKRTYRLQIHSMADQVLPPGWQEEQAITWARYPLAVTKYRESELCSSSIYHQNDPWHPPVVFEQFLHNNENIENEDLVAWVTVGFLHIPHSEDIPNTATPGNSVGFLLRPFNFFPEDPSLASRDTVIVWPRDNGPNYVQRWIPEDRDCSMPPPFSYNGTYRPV
Experimental: The specificity of the compounds of this invention was tested by determining their ability to inhibit DAO activity in vitro, using recombinant human DAO (100 ng/mL; kindly provided by Prof. Boehm, Department of Clinical Pharmacology, Medical University, Vienna). The assay was performed in a similar way as for human SSAO/VAP-1 (Example 8) except, the incubation with the test compounds was extended to 2 hours, and the substrate […] was used at 100 μM in place of benzylamine.

[2] = test system: skin fibrosis; assay: Mouse model of sclerosis (bleomycin-induced skin fibrosis); assay type: in vivo, male C57BL/6; details: […] in a topical formulation from day 3, histology after 21 days
Experimental: Subcutaneous bleomycin (0.1 U/kg) was administered every second day (for 21 days total) to male C57BL/6 to induced skin fibrosis as a model of sclerosis. […] Histology was completed after 21 days.

[3] = test system: LOX; assay: Lysyl oxidase activity in rat skin after topical administration; assay type: in vivo; details: for dorsal skin LOX activity compared to the placebos: rats, topical
Experimental: Dorsal and ventral skin from rats treated by topical application of compound 1 were semi-defrosted at ice-cold temperature and three 3 mm punches of the skin were taken using a tissue puncher. The core sample was microdissected to leave only the epidermal and dermal layers. All other layers were removed. […] The tissue punch was placed in a 1.5 mL Eppendorf tube and snap-frozen in liquid nitrogen. A mortar and pestle stored at −80° C. was then used to pulverize skin tissue. The pulverized sample was further washed in 1 mL of ice-cold washing buffer ((0.15 M NaCl, 50 mM sodium borate, pH 8.0, with PMSF: Sigma P7626, 0.25 mM, and Aprotinin: Sigma A6279, 1 μL per mL). The tissue buffer was centrifuged (20000 g for 10 minutes at 4° C.), and the supernatant was discarded. Fresh wash buffer (1 mL) was added and the Eppendorf tube was agitated for 5 minutes at 4° C. on a vortex shaker. Washing was repeated two more times. After the last wash, the supernatant was completely removed. The rat dorsal skin pellet was re-suspended in 6 M urea 50 mM sodium borate buffer, according to sample weight to achieve final urea concentration of 4.5 M. The extraction buffer contains protease inhibitors; aprotinin and PMSF as above. Each homogenate was well-mixed by continuous vortexing at 4° C. for a 3 hour extraction. After 3 hours, […] 50 mM sodium borate buffer was added to each sample according to sample size to achieve the final urea concentration of 2.4 M. Protease inhibitors—aprotinin and PMSF—are present. The mixture was again centrifuged at (20000 g at 4° C. for 10 minutes) and the supernatant was collected in a clean, cold eppendorf. To 50 μl of sample, pargyline (final concentration at 0.5 mM) and mofegiline (final concentration at 1 μM) were added. Enzyme mix (25 μL) was transferred to the test plate with or without […] (0.5 μl 30 mM) and incubated at 37° C. for 30 minutes. Reaction mix (25 μL) is added to each well, plate fluorescence is measured every 2.5′ with or without 100 μM BAPN for the low controls (Ex: 544 nm/Em: 590 nm/gain: 1260 at 37° C.).

[4] = Skin permeability, Franz diffusion cell system; assay type: in vitro ADME, human; details: topical formulation containing 3% compound; for Concentration of Compound 1 in the receptor chamber: human skin
From the text: Skin permeability is essential when considering topical application to treat skin conditions. One way to evaluate skin permeability is to use a Franz diffusion cell system with human skin as a membrane (Particle Sciences; Technical Brief 2009; Vol. 10). The donor compound, topically formulated, is applied on the top chamber and diffusion through the skin is monitored at relevant time points by sampling the solution in the receptor chamber via the sampling port. The concentration of Compound 1 was determined by quantitative HPLC analysis.

[5] = test system: scars; assay: Excision injury model in pigs; assay type: in vivo; details: daily for 12 weeks
Experimental: Eight full thickness excisions (5×2 cm^2) were made on 5 female juvenile pigs (each weighing 18-20 kg) for a total of 40 injury sites. The entire epidermis and dermal layers of skin were removed by a plastic surgeon in one operation under anaesthesia leaving excisions approximately 5-8 mm in depth. Wounds were dressed and anti-anxiety jackets (Thundershirt; RSPCA) provided to cover wounds. Analgesia was given—buprenorphine injection and fentanyl patch (50 μg/hr) for 10 days, post-surgery—and animals were allowed to recover. The dressings were changed at regular intervals to protect the wounds and prevent infection. Daily treatment started 14 days post-surgery and continued for 12 weeks. […] The surgeons ranked scars in each set of 4 from best to worst (0-3) and the scores for each scar were added and analysed.

SMILES	IC50 [1] [µM]	average LOX score [2]	average collagen score [2]	composite skin score [2]	dorsal skin LOX activity compared to the placebos ([3]; cream containing 1% Compound 1, 400 mg/rat)	dorsal skin LOX activity compared to the placebos ([3]; cream containing 3% Compound 1, 200 mg/rat)	LOX activity in the skin of rats ([3]; topical application of cream versus control (FIG. 3))	Concentration of Compound 1 in the receptor chamber ([4]; 0 hr) [nM]	Concentration of Compound 1 in the receptor chamber ([4]; 2 hr) [nM]	Concentration of Compound 1 in the receptor chamber ([4]; 4 hr) [nM]	Concentration of Compound 1 in the receptor chamber ([4]; 6 hr) [nM]	Concentration of Compound 1 in the receptor chamber ([4]; 20 hr) [nM]	permeability and diffusion across the membrane (in words) ([4]; time dependent)	scar appearance ([5]; pigs, 0, 0.5, 1.5 and 3% oil in water cream)	scar visible versus control scars ([5]; pigs, 3% oil in water cream)
CNc1ccccc1S(=O)(=O)C(F)(F)/C(F)=C/CN [Compound 4, (Z)-2-((4-amino-1,1,2-trifluorobut-2-en-yl)sulfony1)-N-methylaniline]	> 30	–	–	–	–	–	–	–	–	–	–	–	–	–	–
N#CCCN [BAPN, β-aminopropionitrile, reference compound]	> 30	–	–	–	–	–	–	–	–	–	–	–	–	–	–
NC/C=C(\F)C(F)(F)S(=O)(=O)c1ccccc1 [Compound 1, (Z)-3,4,4-trifluoro-4-(phenylsulfonyl)but-2-en-1-amine]	–	significant improvement	significant improvement	significant improvement	significantly lower	significantly lower	reduction	0	17	42	166	1742	good permeability and diffusion	substantial, dose-dependent improvement	significantly less scar visible
